{
  "source": "patent US10781456B2",
  "about": "“Carbon-neutral and carbon-positive photorespiration bypass routes supporting higher photosynthetic rate and yield” (Max-Planck-Gesellschaft zur Förderung der Wissenschaften …, priority 2015, dated 2020)",
  "molecules": {"B1": {"name": "propionyl-CoA transferase from Ralstonia eutropha (PCTRe), wild type, SEQ ID NO: 12 (Cupriavidus necator H16) (protein)", "chain": "MKVITAREAAALVQDGWTVASAGFVGAGHAEAVTEALEQRFLQSGLPRDLTLVYSAGQGDRGARGVNHFGNAGMTASIVGGHWRSATRLATLAMAEQCEGYNLPQGVLTHLYRAIAGGKPGVMTKIGLHTFVDPRTAQDARYHGGAVNERARQAIAEGKACWVDAVDFRGDEYLFYPSFPIHCALIRCTAADARGNLSTHREAFHHELLAMAQAAHNSGGIVIAQVESLVDHHEILQAIHVPGILVDYVVVCDNPANHQMTFAESYNPAYVTPWQGEAAVAEAEAAPVAAGPLDARTIVQRRAVMELARRAPRVVNLGVGMPAAVGMLAHQAGLDGFTLTVEAGPIGGTPADGLSFGASAYPEAVVDQPAQFDFYEGGGIDLAILGLAELDGHGNVNVSKFGEGEGASIAGVGGFINITQSARAVVFMGTLTAGGLEVRAGDGGLQIVREGRVKKIVPEVSHLSFNGPYVASLGIPVLYITERAVFEMRAGADGEARLTLVEIAPGVDLQRDVLDQCSTPIAVAQDLREMDARLFQAGPLHL"}, "B2": {"name": "5-methylthio-D-ribulose 1-phosphate 1,2-isomerase Rru_A0360 (Rhodospirillum rubrum ATCC 11170) (protein)", "chain": "MNVKGTPTRTIWPAREGGAVWIIDQTRLPHEFVTQRLNDLGAVAHAIRAMLVRGAPLIGATAAYGVALGMAEDPSDEGLTRACQTLLATRPTAVNLRWAIEAMAESLAAVPPDQRAQAAWAKAGAICDEDVALNEAIGDHGLGIIKDLARTKGVEKGGEGPINILTHCNAGWLATVDWGTALAPLYKAHDAGLPIHVWVDETRPRNQGASLTAWELNSHGVPHTVIADNTGGHLMQHGLVDMVIVGTDRTTATGDVCNKIGTYLKALAAFDNAVPFYVALPGPTIDWTVNDGLREIPIEQRDAAEVTRVWGRTAAGALEWVTITPTGSPAANYAFDVTPARLITGLITERGVCAASAAGLAGLYPERAPAPVPAGSAAGKGAAATADGAL", "notes": "preliminary kinetics, preparation not described"}, "B3": {"name": "PCCMe: propionyl-CoA carboxylase of Methylobacterium extorquens, subunits pccA (SEQ ID NO: 2) and pccB (SEQ ID NO: 4) (protein, listed as Methylobacterium extorquens)", "alpha": "MFDKILIANRGEIACRIIKTAQKMGIKTVAVYSDADRDAVHVAMADEAVHIGPAPAAQSYLLIEKIIDACKQTGAQAVHPGYGFLSERESFPKALAEAGIVFIGPNPGAIAAMGDKIESKKAAAAAEVSTVPGFLGVIESPEHAVTIADEIGYPVMIKASAGGGGKGMRIAESADEVAEGFARAKSEASSSFGDDRVFVEKFITDPRHIEIQVIGDKHGNVIYLGERECSIQRRNQKVIEEAPSPLLDEETRRKMGEQAVALAKAVNYDSAGTVEFVAGQDKSFYFLEMNTRLQVEHPVTEMITGLDLVELMIRVAAGEKLPLSQDQVKLDGWAVESRVYAEDPTRNFLPSIGRLTTYQPPEEGPLGGAIVRNDTGVEEGGEIAIHYDPMIAKLVTWAPTRLEAIEAQATALDAFAIEGIRHNIPFLATLMAHPRWRDGRLSTGFIKEEFPEGFIAPEPEGPVAHRLAAVAAAIDHKLNIRKRGISGQMRDPSLLTFQRERVVVLSGQRFNVTVDPDGDDLLVTFDDGTTAPVRSAWRPGAPVWSGTVGDQSVAIQVRPLLNGVFLQHAGAAAEARVFTRREAELADLMPVKENAGSGKQLLCPMPGLVKQIMVSEGQEVKNGEPLAIVEAMKMENVLRAERDGTISKIAAKEGDSLAVDAVILEFA", "beta": "MKDILEKLEERRAQARLGGGEKRLEAQHKRGKLTARERIELLLDHGSFEEFDMFVQHRSTDFGMEKQKIPGDGVVTGWGTVNGRTVFLFSKDFTVFGGSLSEAHAAKIVKVQDMALKMRAPIIGIFDAGGARIQEGVAALGGYGEVFRRNVAASGVIPQISVIMGPCAGGDVYSPAMTDFIFMVRDTSYMFVTGPDVVKTVTNEVVTAEELGGAKVHTSKSSIADGSFENDVEAILQIRRLLDFLPANNIEGVPEIESFDDVNRLDKSLDTLIPDNPNKPYDMGELIRRVVDEGDFFEIQAAYARNIITGFGRVEGRTVGFVANQPLVLAGVLDSDASRKAARFVRFCNAFSIPIVTFVDVPGFLPGTAQEYGGLIKHGAKLLFAYSQATVPLVTIITRKAFGGAYDVMASKHVGADLNYAWPTAQIAVMGAKGAVEIIFRAEIGDADKIAERTKEYEDRFLSPFVAAERGYIDEVIMPHSTRKRIARALGMLRTKEMEQPWKKHDNIPL", "modifications": "[CDS]1..2004 from SEQ ID NO 1; [CDS]1..1533 from SEQ ID NO 3"}},
  "key": {"[1]": {"target": "transaldolase Tal from B. subtilis (UniProt P19669)", "conditions": "cited from earlier work"}, "[2]": {"target": "D-fructose 6-phosphate aldolase encoded by E. coli gene fsaA (UniProt P78055)", "conditions": "cited from earlier work"}, "[3]": {"target": "transaldolase TalB from E. coli (UniProt P0A870)", "conditions": "cited from earlier work"}, "[4]": {"target": "transaldolase Tal from C. glutamicum (UniProt Q8NQ64)", "conditions": "cited from earlier work"}, "[5]": {"target": "D-fructose 6-phosphate aldolase encoded by E. coli gene fsaB (UniProt P32669)", "conditions": "cited from earlier work"}, "[6]": {"substrate": "O=C(O)CO", "experiment": "purified protein, by the assay type", "conditions": "other: 37° C., pH 7.5, 2 mM acetyl-CoA, 10-800 mM glycolate, n=3"}, "[7]": {"substrate": "O=C(COP(=O)(O)O)[C@H](O)[C@H](O)CO", "experiment": "isomerisation of D-ribulose 1-phosphate to D-ribose 1-phosphate (reaction 29#), preliminary study", "assay_type": "biochemical", "conditions": "other: preliminary study"}, "glycolyl-CoA [8]": {"system": "glycolyl-CoA", "experiment": "propionyl-CoA carboxylase ATP hydrolysis assay coupled to PK/LDH, NADH oxidation at 340 nm, product tartronyl-CoA confirmed by UPLC-hrMS (reaction 3#)", "assay_type": "biochemical", "description": "The activity of the PCCMe_D407I_Y143H protein as well as the PCCMe protein was determined spectrophotometrically at 37° C. The ATP hydrolysis reaction of the respective enzyme was coupled to ATP regeneration by pyruvate kinase (PK) with phosphoenolpyruvate (PEP) and subsequent reduction to lactate by lactate dehydrogenase (LDH). The oxidation of NADH by LDH was followed spectrophotometrically at 340 nm. The reaction mixture (300 μL) contained 200 mM NH4HCO3 buffer, pH 7.7, 5 mM MgCl2, 1 mM ATP, 1 mM PEP, 4 U PK, 5.8 U LDH, 0.3 mM NADH and 48 μg of PCCMe_D407I_Y143H or PCCMe. The reaction was initiated by addition of 1 mM glycolyl-CoA. Samples for UPLC-hrMS were withdrawn and stopped by acidification (5% formic acid) after most of the NADH was consumed. Precipitated protein was removed by centrifugation at 4° C. and 17 000×g. The supernatants were analyzed by UPLC-hrMS as described above. […] As mentioned above, and shown in FIG. 10, the glycolyl-CoA carboxylation activity of the PCCMe_D407I_Y143H enzyme was confirmed by direct detection of the product tartronyl-CoA by UPLC-hrMS.\nIn a second assay, the reaction mixture was slightly modified for a ^13C labeling experiment. Here, the reaction mixture contained 50 mM NH4HCO3 buffer, pH 7.7 and 150 mM [^13C]NaHCO3, pH 7.7 (otherwise as above-mentioned). […]"}, "glycolyl-CoA [9]": {"system": "glycolyl-CoA", "experiment": "MCRCa coupled assay: glycolyl-CoA carboxylation by PCC coupled to two step reduction to glycerate by MCRCa (reactions 3#, 4#, 5), HPLC-hrMS and NADPH absorption", "assay_type": "biochemical", "description": "In addition to the above mentioned assays also another assay was performed in which the formation of tartronyl-CoA from glycolyl-CoA (reaction 3#) by the PCCMe_D407I_Y143H enzyme was directly coupled to its subsequent two step reduction via tartronate-semialdehyde (reaction 4#) to glycerate (reaction 5) by use of the purified MCRCa (Kröger et al., 2011, loc. cit.). The reaction mixture (300 μL) contained 200 mM NH4HCO3 buffer, pH 7.7, 5 mM MgCl2, 1 mM ATP, 0.4 mM NADPH, 43 μg PCCMe_D407I_Y143H, and 184 μg of MCRCa.\nTo determine whether MCRCa was able to catalyze the two step reduction of tartonyl-CoA to glycerate (via tartronic semialdehyde), samples of the reaction mixture were withdrawn after all of the NADPH was consumed. The samples were stopped with formic acid (5% final concentration). The acidified samples were centrifuged at 4° C. and 17 000×g and the supernatants were analyzed by HPLC-hrMS.\nThe formation of glycerate was analyzed using an Agilent 6550 iFunnel Q-TOF LC-MS system equipped with an electrospray ionization source set to negative ionization mode. […]\nLC-MS data were analyzed using MassHunter Qualitative Analysis software (Agilent). […] In such assays the tartronate semialdehyde can be covalently derivatized with phenylhydrazine to a phenylhydrazone, which can be detected by its absorbance at 324 nm and confirmed by its corresponding mass spectrum. […]"}, "[10]": {"conditions": "D-fructose 6-phosphate and glycolaldehyde, range over the three transaldolases"}, "[11]": {"conditions": "transaldolase reaction with D-fructose 6-phosphate, read-out: KM towards glycolaldehyde"}, "[12]": {"conditions": "as an acceptor, read-out: KM for glycolaldehyde as an acceptor"}, "[13]": {"conditions": "bound stated for both fsaA and fsaB enzymes, read-out: KM (condensation of glycolaldehyde as donor with D-glyceraldehyde 3-phosphate as acceptor)"}},
  "note": "Like-named read-outs stand apart in the source and are kept apart here.",
  "data": [
    {"molecule": "O=CCO", "note": "[glycolaldehyde]", "values": [
      {"measurement": "vmax", "setting": "[1]; [10]", "value": "1.6 to 8.8", "unit": "µmol/min/mg"},
      {"measurement": "Km", "setting": "[1]; [11]", "value": "> 60", "unit": "mM"},
      {"measurement": "Km", "setting": "[2]; [12]", "value": "> 60", "unit": "mM"},
      {"measurement": "Km", "setting": "[2]; [13]", "value": "< 1", "unit": "mM"},
      {"measurement": "Km", "setting": "[2]; read-out: KM for glycolaldehyde", "value": "~0.2", "unit": "mM"},
      {"measurement": "vmax", "setting": "[3]; [10]", "value": "1.6 to 8.8", "unit": "µmol/min/mg"},
      {"measurement": "Km", "setting": "[3]; [11]", "value": "> 60", "unit": "mM"},
      {"measurement": "vmax", "setting": "[4]; [10]", "value": "1.6 to 8.8", "unit": "µmol/min/mg"},
      {"measurement": "Km", "setting": "[4]; [11]", "value": "> 60", "unit": "mM"},
      {"measurement": "Km", "setting": "[5]; [12]", "value": "> 60", "unit": "mM"},
      {"measurement": "Km", "setting": "[5]; [13]", "value": "< 1", "unit": "mM"}
    ]},
    {"molecule": "B1", "values": [
      {"measurement": "Km", "setting": "[6]", "value": "51.7 ± 9.6 mM (glycolate) mM"}
    ]},
    {"molecule": "B2", "values": [
      {"measurement": "kcat", "setting": "[7]", "value": 0.03, "unit": "s⁻¹"}
    ]},
    {"molecule": "B3", "values": [
      {"measurement": "glycolyl-CoA carboxylation activity (tartronyl-CoA by UPLC-hrMS)", "setting": "glycolyl-CoA [8]", "value": "exhibited a glycolyl-CoA carboxylation activity, although the activity was lower"},
      {"measurement": "glycolyl-CoA-dependent ATP hydrolysis rate", "setting": "glycolyl-CoA [8]; 1 mM glycolyl-CoA, 37° C.", "value": 0.4, "unit": "U mg^−1"},
      {"measurement": "activity with glycolyl-CoA in the MCRCa coupled assay", "setting": "glycolyl-CoA [9]", "value": "no activity could be measured"}
    ]}
  ]
}
